ChEMBL document CHEMBL5154865, “Antibiotic natural product hunanamycin A: Lead identification towards anti-Salmonella agents” (Eur J Med Chem, 2022)
Converted amounts (≈) assume the structure as drawn.

Columns and labels:
Salmonella enterica = test: Antibacterial activity against Salmonella enterica ATCC 6539 assessed as microbial cell viability incubated for 24 hr by quantification of ATP multimode plate reader method; type: functional
[1] = Plasma protein binding in human measured at 150 uM preincubated for 30 mins followed by addition of dialysis buffer measured after 4 hrs by LC-MS/MS analysis; type: ADME, cell-free; details: read-out: PPB (converted)
[2] = Solubility of compound in DMSO at pH 1.2 after 5 mins measured by HPLC analysis; type: physicochemical
[3] = Solubility of compound in DMSO at pH 10.2 after 5 mins measured by HPLC analysis; type: physicochemical
[4] = Solubility of compound in DMSO at pH 7.4 after 5 mins measured by HPLC analysis; type: physicochemical
[5] = Metabolic stability in human liver microsomes measured at 1 uM after 30 mins by LC-MS/MS analysis; type: ADME, Microsome; details: read-out: Stability
[6] = Solubility of compound in DMSO at pH 2.2 after 5 mins measured by HPLC analysis; type: physicochemical
[7] = Solubility of compound in DMSO at pH 4.5 after 5 mins measured by HPLC analysis; type: physicochemical
[8] = Metabolic stability in mouse liver microsomes measured at 1 uM after 30 mins by LC-MS/MS analysis; type: ADME, Microsome; details: read-out: Stability
[9] = Stability in human plasma measured after 60 mins LC-MS/MS analysis; type: ADME, cell-free; details: read-out: Stability
[10] = Acute toxicity in Swiss albino mouse assessed as mortality at 2 g/Kg, po administered daily for 14 days; type: organism-based; details: in vivo, 2000 mg/kg, 336 h, time 14 day
[11] = Acute toxicity in Swiss albino mouse assessed as lethal dose administered orally daily for 14 days; details: in vivo, route po, time 14 day

## CC1(C)CCn2c(=O)c(=O)n(Cc3cn([C@@H]4OC(CO)C(O)C4O)nn3)c3cccc1c32 (single isomer, unassigned)
Salmonella enterica
  MIC: 32 µg/mL (≈ 72.2 µM)

## CCn1c(=O)c(=O)n(C[C@H](O)[C@H](O)[C@H](O)CO)c2cc(C)c(C)cc21
Salmonella enterica
  MIC: > 32 µg/mL

## CC1(C)CCn2c(=O)c(OC[C@H](O)[C@H](O)[C@H](O)CO)nc3cccc1c32
Salmonella enterica
  MIC: 16 µg/mL (≈ 43.9 µM)

## CC1(C)CCn2c(=O)n(Cc3nn[nH]n3)c3cccc1c32
Salmonella enterica
  MIC: > 32 µg/mL

## CC1(C)CCn2c(=O)[nH]c(=O)c3cccc1c32
Salmonella enterica
  MIC: 16 µg/mL (≈ 69.5 µM)

## CO[C@@H]1O[C@H](Cn2cc(Cn3c(=O)c(=O)n4c5c(cccc53)C(C)(C)CC4)nn2)[C@@H](O)[C@H]1O
Salmonella enterica
  MIC: 32 µg/mL (≈ 69.9 µM)

## CO[C@@H]1O[C@H](Cn2c(=O)n3c4c(cccc42)C(C)(C)CC3)[C@@H](O)[C@H]1O
[1]
  fraction unbound at 4 h, 150 µM: 0.338
[2]
  solubility at 5 min: 41.2 µM (≈ 14.4 µg/mL)
Salmonella enterica
  MIC: 2 µg/mL (≈ 5.74 µM)
[3]
  solubility at 5 min: 48.6 µM (≈ 16.9 µg/mL)
[4]
  solubility at 5 min: 48.5 µM (≈ 16.9 µg/mL)
[5]
  remaining at 0.5 h, 1 µM: 90%
[6]
  solubility at 5 min: 48.4 µM (≈ 16.8 µg/mL)
[7]
  solubility at 5 min: 48.8 µM (≈ 17 µg/mL)
[8]
  remaining at 0.5 h, 1 µM: 74.3%
[9]
  remaining at 1 h: 98%

## Cc1cc2c(cc1C)n(C[C@H](O)[C@H](O)[C@H](O)CO)c(=O)c(=O)n2CC=C1CCCCC1
Salmonella enterica
  MIC: 32 µg/mL (≈ 74 µM)

## CC1(C)CCn2c(=O)n(C[C@H](O)[C@@H](O)CO)c3cccc1c32
Salmonella enterica
  MIC: 16 µg/mL (≈ 52.2 µM)

## CO[C@@H]1O[C@H](Cn2c(=O)c(=O)n3c4c(cccc42)C(C)(C)CC3)[C@@H](O)[C@H]1O
Salmonella enterica
  MIC: 16 µg/mL (≈ 42.5 µM)

## CC1(C)CCn2c(=O)c(=O)n(CCO)c3cccc1c32
Salmonella enterica
  MIC: 24 µg/mL (≈ 87.5 µM)

## CC1(C)CCn2c(=O)c(OCC(O)CO)nc3cccc1c32 (single isomer, unassigned)
Salmonella enterica
  MIC: 16 µg/mL (≈ 52.6 µM)

## CCOC(=O)Cn1c(=O)c(=O)n(C[C@H](O)[C@H](O)[C@H](O)CO)c2cc(C)c(C)cc21
Salmonella enterica
  MIC: 16 µg/mL (≈ 39 µM)

## CC(C)=CCn1c(=O)c(=O)n(C[C@H](O)[C@H](O)[C@H](O)CO)c2cc(C)c(C)cc21
Salmonella enterica
  MIC: 16 µg/mL (≈ 40.8 µM)

## CC1(C)CCn2c(=O)n(Cc3cn(C[C@H](O)[C@H](O)[C@H](O)CO)nn3)c3cccc1c32
Salmonella enterica
  MIC: 32 µg/mL (≈ 76.7 µM)

## CCOC(=O)Cn1cc(Cn2c(=O)c(=O)n3c4c(cccc42)C(C)(C)CC3)nn1
Salmonella enterica
  MIC: 16 µg/mL (≈ 40.3 µM)

## CO[C@@H]1O[C@H](Cn2cc(Cn3c(=O)c4cccc5c4n(c3=O)CCC5(C)C)nn2)[C@@H](O)[C@H]1O (single isomer, unassigned)
Salmonella enterica
  MIC: > 32 µg/mL

## CC1(C)CCn2c(=O)c(=O)n(CCCO)c3cccc1c32
[1]
  fraction unbound at 4 h, 150 µM: 0.389
[2]
  solubility at 5 min: 51.2 µM (≈ 14.8 µg/mL)
Salmonella enterica
  MIC: 1 µg/mL (≈ 3.47 µM)
[3]
  solubility at 5 min: 50.2 µM (≈ 14.5 µg/mL)
[4]
  solubility at 5 min: 50.1 µM (≈ 14.5 µg/mL)
[5]
  remaining at 0.5 h, 1 µM: 100%
[10]
  Activity: Non-Toxic
[6]
  solubility at 5 min: 50.8 µM (≈ 14.7 µg/mL)
[7]
  solubility at 5 min: 50.1 µM (≈ 14.4 µg/mL)
[11]
  LD50 at 336 h: > 2000 mg/kg
[8]
  remaining at 0.5 h, 1 µM: 96.1%
[9]
  remaining at 1 h: 82.4%

## CC1(C)CCn2c(=O)n(CCCO)c3cccc1c32
Salmonella enterica
  MIC: > 32 µg/mL

## Cc1cc2c3c(c1C)C(C)(C)CCn3c(=O)c(=O)n2C[C@H](O)[C@H](O)[C@H](O)CO
[1]
  fraction unbound at 4 h, 150 µM: 0.412
[2]
  solubility at 5 min: 50.8 µM (≈ 19.9 µg/mL)
Salmonella enterica
  MIC: 8 µg/mL (≈ 20.4 µM)
[3]
  solubility at 5 min: 49.3 µM (≈ 19.3 µg/mL)
[4]
  solubility at 5 min: 49.4 µM (≈ 19.4 µg/mL)
[5]
  remaining at 0.5 h, 1 µM: 100%
[10]
  Activity: Non-Toxic
[6]
  solubility at 5 min: 50.4 µM (≈ 19.8 µg/mL)
[7]
  solubility at 5 min: 50 µM (≈ 19.6 µg/mL)
[11]
  LD50 at 336 h: > 2000 mg/kg
[8]
  remaining at 0.5 h, 1 µM: 99.6%
[9]
  remaining at 1 h: 100%

## CC1(C)CCn2c(=O)n(Cc3cn(CCO)nn3)c3cccc1c32
Salmonella enterica
  MIC: 16 µg/mL (≈ 48.9 µM)

## C#CCn1c(=O)c2cccc3c2n(c1=O)CCC3(C)C
Salmonella enterica
  MIC: 24 µg/mL (≈ 89.4 µM)

## CO[C@@H]1O[C@H](Cn2c(=O)n3c4c(cccc42)C(C)(C)CC3)[C@H]2OC(=O)O[C@@H]12
Salmonella enterica
  MIC: 32 µg/mL (≈ 85.5 µM)

## Cn1nnc(Cn2c(=O)c(=O)n3c4c(cccc42)C(C)(C)CC3)n1
Salmonella enterica
  MIC: 16 µg/mL (≈ 49 µM)

## CCCCCn1c(=O)c(=O)n2c3c(cccc31)C(C)(C)CC2
Salmonella enterica
  MIC: 32 µg/mL (≈ 107 µM)

## CC1(C)CCn2c(=O)n(Cc3cn([C@@H]4O[C@H](CO)[C@@H](O)[C@H]4O)nn3)c3cccc1c32
Salmonella enterica
  MIC: 32 µg/mL (≈ 77 µM)

## CC1(C)CCn2c(=O)c(=O)n(Cc3nn[nH]n3)c3cccc1c32
[1]
  fraction unbound at 4 h, 150 µM: 0.0205
[2]
  solubility at 5 min: 51.8 µM (≈ 16.2 µg/mL)
Salmonella enterica
  MIC: 4 µg/mL (≈ 12.8 µM)
[3]
  solubility at 5 min: 51.8 µM (≈ 16.2 µg/mL)
[4]
  solubility at 5 min: 51.8 µM (≈ 16.2 µg/mL)
[5]
  remaining at 0.5 h, 1 µM: 98.9%
[6]
  solubility at 5 min: 51.2 µM (≈ 16 µg/mL)
[7]
  solubility at 5 min: 50.5 µM (≈ 15.8 µg/mL)
[8]
  remaining at 0.5 h, 1 µM: 96.1%
[9]
  remaining at 1 h: 99.9%

## CC1(C)CCn2c(=O)c(=O)n(CC(N)=O)c3cccc1c32
Salmonella enterica
  MIC: 24 µg/mL (≈ 83.5 µM)

## CO[C@@H]1O[C@H](Cn2cc(Cn3c(=O)c(=O)n4c5c(cccc53)C(C)(C)CC4)nn2)[C@H]2OC(=O)O[C@@H]12
Salmonella enterica
  MIC: 32 µg/mL (≈ 66.2 µM)

## CCOC(=O)Cn1c(=O)c(=O)n2c3c(cccc31)C(C)(C)CC2
Salmonella enterica
  MIC: 8 µg/mL (≈ 25.3 µM)

## CC1(C)CCn2c(=O)n(Cc3cn([C@@H]4OC(CO)C(O)C4O)nn3)c(=O)c3cccc1c32 (single isomer, unassigned)
Salmonella enterica
  MIC: > 32 µg/mL

## Cc1cc2c3c(c1C)C(C)(C)CCn3c(=O)c(=O)n2CC(O)CO (configuration not stated)
Salmonella enterica
  MIC: 16 µg/mL (≈ 48.1 µM)

## CC1(C)CCn2c(=O)c(=O)n(Cc3ccccc3)c3cccc1c32
Salmonella enterica
  MIC: 32 µg/mL (≈ 99.9 µM)

## CCOC(=O)Cn1cc(Cn2c(=O)c3cccc4c3n(c2=O)CCC4(C)C)nn1
Salmonella enterica
  MIC: > 32 µg/mL

## CC1(C)CCn2c(=O)c(=O)n(C[C@H](O)[C@H](O)[C@H](O)CO)c3cccc1c32
Salmonella enterica
  MIC: 16 µg/mL (≈ 43.9 µM)

## CC1(C)CCn2c(=O)n(C[C@H](O)[C@H](O)[C@H](O)CO)c3cccc1c32
[1]
  fraction unbound at 4 h, 150 µM: 0.578
[2]
  solubility at 5 min: 48.2 µM (≈ 16.2 µg/mL)
Salmonella enterica
  MIC: 4 µg/mL (≈ 11.9 µM)
[3]
  solubility at 5 min: 47.6 µM (≈ 16 µg/mL)
[4]
  solubility at 5 min: 47.4 µM (≈ 15.9 µg/mL)
[5]
  remaining at 0.5 h, 1 µM: 100%
[6]
  solubility at 5 min: 48 µM (≈ 16.1 µg/mL)
[7]
  solubility at 5 min: 47.8 µM (≈ 16.1 µg/mL)
[8]
  remaining at 0.5 h, 1 µM: 96.4%
[9]
  remaining at 1 h: 99.9%

## CC1(C)CCn2c(=O)c(=O)n(Cc3ccccn3)c3cccc1c32
Salmonella enterica
  MIC: 24 µg/mL (≈ 74.7 µM)

## CO[C@@H]1O[C@H](Cn2c(=O)n3c4c(cccc42)C(C)(C)CC3)[C@@H](OC)[C@H]1OC
Salmonella enterica
  MIC: > 32 µg/mL

## Cc1cc2c(cc1C)n(C[C@H](O)[C@H](O)[C@H](O)CO)c(=O)c(=O)n2CCC1CCCCC1
Salmonella enterica
  MIC: 8 µg/mL (≈ 18.4 µM)

## CC1(C)CCn2c(=O)c(=O)[nH]c3cccc1c32
Salmonella enterica
  MIC: 16 µg/mL (≈ 69.5 µM)

## C=CCn1c(=O)c(=O)n(C[C@H](O)[C@H](O)[C@H](O)CO)c2cc(C)c(C)cc21
Salmonella enterica
  MIC: 16 µg/mL (≈ 43.9 µM)

## CCOC(=O)Cn1cc(Cn2c(=O)n3c4c(cccc42)C(C)(C)CC3)nn1
Salmonella enterica
  MIC: 8 µg/mL (≈ 21.7 µM)

## CC1(C)CCn2c(=O)c(=O)n(CC(=O)O)c3cccc1c32
Salmonella enterica
  MIC: 16 µg/mL (≈ 55.5 µM)

## Cc1cc2[nH]c(=O)c(=O)n(C[C@H](O)[C@H](O)[C@H](O)CO)c2cc1C
Salmonella enterica
  MIC: > 32 µg/mL

## Cc1cc2nc(OC[C@H](O)[C@H](O)[C@H](O)CO)c(=O)n3c2c(c1C)C(C)(C)CC3
Salmonella enterica
  MIC: 8 µg/mL (≈ 20.4 µM)

## CC1(C)CCn2c(=O)n(CC(O)CO)c3cccc1c32 (configuration not stated)
Salmonella enterica
  MIC: 16 µg/mL (≈ 57.9 µM)

## CC1(C)CCn2c(=O)c(=O)n(CC(O)CO)c3cccc1c32 (configuration not stated)
Salmonella enterica
  MIC: 8 µg/mL (≈ 26.3 µM)

## CC1(C)CCn2c(=O)c(=O)n(CCCCO)c3cccc1c32
Salmonella enterica
  MIC: 32 µg/mL (≈ 106 µM)
